Measured values from ChEMBL document CHEMBL1131809, “1-[(Benzofuran-2-yl)phenylmethyl]-triazoles and -tetrazoles - potent competitive inhibitors of aromatase” (Bioorg Med Chem Lett, 1999).

Biological target: T1, Aromatase (Homo sapiens, UniProt P11511)
T1 sequence (P11511 whole entry): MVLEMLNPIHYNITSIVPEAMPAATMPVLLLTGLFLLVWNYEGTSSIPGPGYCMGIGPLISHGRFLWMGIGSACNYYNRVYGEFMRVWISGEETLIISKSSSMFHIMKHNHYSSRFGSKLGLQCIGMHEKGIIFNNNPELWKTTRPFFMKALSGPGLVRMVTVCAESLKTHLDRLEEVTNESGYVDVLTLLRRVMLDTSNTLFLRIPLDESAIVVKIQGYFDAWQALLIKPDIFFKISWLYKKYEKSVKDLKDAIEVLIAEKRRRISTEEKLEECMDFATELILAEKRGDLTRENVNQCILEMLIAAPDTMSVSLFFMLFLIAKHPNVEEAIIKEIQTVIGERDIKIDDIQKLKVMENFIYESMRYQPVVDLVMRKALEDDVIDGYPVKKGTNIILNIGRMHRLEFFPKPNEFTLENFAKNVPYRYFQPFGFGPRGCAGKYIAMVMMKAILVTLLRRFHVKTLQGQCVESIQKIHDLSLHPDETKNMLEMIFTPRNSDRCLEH
Description: Inhibition of human placental aromatase, cytochrome P450 19A1 at 20 uM

inhibition at 20 µM | Structure (SMILES)
67.2% | Cc1ccc(C(c2cc3ccccc3o2)n2cnnn2)cc1 (stereo not drawn)
85.7% | c1ccc(C(c2cc3ccccc3o2)n2cncn2)cc1 (stereo not drawn)
14.4% | O=[N+]([O-])c1ccc2oc(C(c3ccccc3)n3cnnn3)cc2c1 (stereo not drawn)
